# According to patent US11730705B2, “Small molecule CMKLR1 antagonists in inflammatory disease” (The Board of Trustees of the Leland Stanford Junior …, priority 2019, dated 2023):
# Assays:
# [1] = test system: Salmonella typhimurium (TA100); assay: Ames test for genotoxicity; settings: concentrations up to at least 10 uM
# [2] = test system: cytochrome P450 (Cyp) drug metabolizing enzymes; assay: Time-dependent (mechanism-based) Cyp inhibition; assay type: in vitro ADME, human
# Experimental: Cyp enzyme inhibition. Human liver microsomes were pre-incubated with 7 concentrations ([…], duplicate wells) of α-NETA for 30 min.
# (hu)CMKLR1 L1.2 cells = molecular target: T1, (hu)CMKLR1 L1.2 cells (Homo sapiens, UniProt Q99788); assay: Chemotaxis assay (chemerin-dependent CMKLR1+ cell migration); assay type: cell-based; settings: Table 3; migration toward huChemerin, 2 h transwell; read-out: Chemotaxis IC50 μM mean ± SEM (n)
# T1 construct: expressed in transfected cells; host or cells: L1.2 pre-B cell lymphoma cells
# T1 sequence (Q99788 1-373): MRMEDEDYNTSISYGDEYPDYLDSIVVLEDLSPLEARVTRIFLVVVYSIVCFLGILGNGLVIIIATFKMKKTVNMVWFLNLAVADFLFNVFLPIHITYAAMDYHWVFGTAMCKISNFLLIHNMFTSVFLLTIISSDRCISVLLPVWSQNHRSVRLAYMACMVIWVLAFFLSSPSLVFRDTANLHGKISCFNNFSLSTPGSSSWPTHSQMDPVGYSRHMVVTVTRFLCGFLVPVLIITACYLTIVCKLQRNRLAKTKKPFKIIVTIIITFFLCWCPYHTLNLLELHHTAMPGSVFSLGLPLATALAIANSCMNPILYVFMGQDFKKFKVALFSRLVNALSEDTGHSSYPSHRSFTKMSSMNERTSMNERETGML
# Experimental: Cell culture. (hu)CMKLR1 transfectants (generated in L1.2 pre-B cell lymphoma cells) were grown in RPMI 1640 (Corning) supplemented with L-glutamine, penicillin-streptomycin, and 10% BCS and G418-sulfate (KSE Scientific). DiscoverX PathHunter® CHO-K1 CMKLR1 β-Arrestin Cells were grown in RPMI lacking phenol red (Gibco, Life Technologies), supplemented with L-glutamine, penicillin-streptomycin, sodium pyruvate, non-essential amino acid, BCS, hygromycin, and G418-sulfate.
# Chemotaxis assay. (hu)CMKLR1 L1.2 cells at 1×10^6 cell/ml were treated with 5 mM sodium butyrate (Sigma) overnight to induce hCMKLR1 expression. The next day, cells were washed in migration media (RPMI+0.5% BSA) and resuspended at 1.5-3×10^6 cell/ml. Cells were pre-incubated at RT for 10 min with various concentrations of α-NETA or test compounds (α-NETA and test compounds were reconstituted in DMSO; final DMSO concentration in each well was 0.1%). 100 ul of cells were added to the upper chamber of a 24-well transwell plate (5 um pore size, Costar). Cells were allowed to migrate toward huChemerin ([…] in migration media, bottom chamber) for 2 h, 37° C., 5% CO2. The number of migrated cells was quantified by flow cytometry (BD LSR2), and live cells were distinguished based on FSC×SSC properties. The background for this assay was typically low with 0 cells migrating to the buffer alone. For each independent trial, data was normalized to the maximum migration per compound tested and an IC50 value was generated using GraphPad Prism software. The average IC50 value for n independent trials (as specified in the table) is reported.
compound,measurement,setting,value
"C[N+](C)(C)CCC(=O)c1cccc2ccccc12.[I-] [α-NETA, 2-(α-naphthoyl) ethyltrimethylammonium iodide]",mutagenesis (reversion of an obligate histidine mutation),[1],did not induce mutagenesis
same,time-dependent (mechanism-based) Cyp inhibition,[2],No time-dependent (mechanism-based) Cyp inhibition was detected
same,IC50,(hu)CMKLR1 L1.2 cells,37 ± 8.9 µM
